Where two headings read alike, the source gives them in different places.
Assays:
5-HT1A receptor = 5-HT1A receptor (Homo sapiens (Human), UniProt P08908); assay: Affinity for human 5-HT1A receptor ([3H]8-OH-DPAT binding, HEK-293 cell homogenates);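 also: Filter-retained radioactivity counted by scintillation, non-specific binding defined with 10 µM 8-OH-DPAT, Ki derived from percent inhibition of specific radioligand binding versus control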
Method: The non-specific binding value was determined by incubating the same mixture in the presence of 10 μM 8-OH-DPAT, which was used as the standard reference compound and tested in each experiment at several concentrations to obtain a competition curve.
Following the incubation, the samples were filtered rapidly under vacuum through glass fiber filter (GF/B, Packard) presoaked with 0.3% PEI and rinsed several times with ice-cold 50 mM Tris-HCl using a 96-sample cell harvester (Unifilter, Packard). The filters were dried and the retained radioactivity was measured in a scintillation counter (Topcount, Packard) using a scintillation cocktail (Microscint 0, Packard). The experimental results were expressed as a percent inhibition of the control radioligand specific binding, and Ki was the inhibition constant.

dopamine D2S receptor = dopamine D2S receptor (Homo sapiens (Human), UniProt P14416); assay: Affinity for human dopamine D2S receptor ([3H]methyl-spiperone binding); conditions: 0.3 nM [3H]methyl-spiperone, cell membrane homogenates, 22° C., 60 minutes
Chain of dopamine D2S receptor (P14416 other isoform, or with tags, fused parts or gaps): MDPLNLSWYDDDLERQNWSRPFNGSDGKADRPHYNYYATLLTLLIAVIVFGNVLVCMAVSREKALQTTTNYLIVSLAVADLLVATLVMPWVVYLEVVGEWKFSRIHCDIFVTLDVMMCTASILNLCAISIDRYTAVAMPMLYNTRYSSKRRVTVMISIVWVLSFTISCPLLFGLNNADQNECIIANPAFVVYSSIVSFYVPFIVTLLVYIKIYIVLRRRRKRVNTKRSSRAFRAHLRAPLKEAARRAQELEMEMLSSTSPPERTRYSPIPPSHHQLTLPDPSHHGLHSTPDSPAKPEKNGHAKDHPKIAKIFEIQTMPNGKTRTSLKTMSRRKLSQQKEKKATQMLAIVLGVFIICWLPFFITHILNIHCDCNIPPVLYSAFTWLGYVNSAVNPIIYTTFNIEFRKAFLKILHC
Method: Cell membrane homogenates (24 μg protein) were incubated at 22° C. for 60 minutes with 0.3 nM [3H]methyl-spiperone in the absence or presence of the test compound in a buffer solution containing 50 mM Tris-HCl (pH 7.4), 120 mM NaCl, 5 mM KCl, 5 mM MgCl2 and 1 mM EDTA.
The non-specific binding value was determined by incubating the same mixture in the presence of 10 μM (+)butaclamol.
Following the incubation, the samples were filtered rapidly under vacuum through glass fiber filter (GF/B, Packard) presoaked with 0.3% PEI and rinsed several times with ice-cold 50 mM Tris-HCl using a 96-sample cell harvester (Unifilter, Packard). The filters were dried and the retained radioactivity was measured in a scintillation counter (Topcount, Packard) using a scintillation cocktail (Microscint 0, Packard).
The experimental results were expressed as a percent inhibition of the control radioligand specific binding, and Ki was the inhibition constant. The standard reference compound was (+)butaclamol, which was tested in each experiment at several concentrations to obtain a competition curve from which its IC50 was calculated, and then Ki value was calculated by ChengPrusoff equation.

serotonin transporter = serotonin transporter (Rattus norvegicus (Rat), UniProt P31652); assay: Inhibitory effect on [3H]5-HT uptake in rat synaptosome; format: biochemical; conditions: rat brain synaptosomes, 37° C., 15 minutes, 0.1 μCi [3H]5-HT
Chain of serotonin transporter (P31652 whole entry): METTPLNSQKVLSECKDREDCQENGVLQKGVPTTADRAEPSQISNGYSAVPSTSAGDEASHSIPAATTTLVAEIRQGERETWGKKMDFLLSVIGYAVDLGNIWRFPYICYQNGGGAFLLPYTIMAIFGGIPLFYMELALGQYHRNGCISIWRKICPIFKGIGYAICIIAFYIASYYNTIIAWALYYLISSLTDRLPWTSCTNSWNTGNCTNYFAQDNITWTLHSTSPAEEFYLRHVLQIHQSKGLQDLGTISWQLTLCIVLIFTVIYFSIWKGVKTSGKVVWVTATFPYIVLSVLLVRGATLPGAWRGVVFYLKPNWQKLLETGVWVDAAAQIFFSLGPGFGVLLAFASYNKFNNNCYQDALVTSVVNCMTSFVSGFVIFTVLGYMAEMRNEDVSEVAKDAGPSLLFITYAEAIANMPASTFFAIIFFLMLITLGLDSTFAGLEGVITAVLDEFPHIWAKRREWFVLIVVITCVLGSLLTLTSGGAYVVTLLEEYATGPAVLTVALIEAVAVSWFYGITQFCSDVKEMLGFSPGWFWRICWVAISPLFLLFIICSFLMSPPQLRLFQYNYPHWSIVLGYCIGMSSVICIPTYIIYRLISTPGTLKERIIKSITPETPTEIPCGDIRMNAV
Method: The synaptosomes (150 μg) prepared from the rat brain were incubated at 37° C. for 15 minutes with 0.1 μCi [^3H]5-HT in the absence or presence of the test compound or the reference compound in a buffer solution containing 106.2 mM NaCl, 4.5 mM KCl, 2.25 mM MgSO4, 1.08 mM NaH2PO4, 22.5 mM NaHCO3, 9.9 mM glucose, 9 μM EGTA and 45 μM ascorbic acid (pH 7.4).
Inhibition of serotonin transporter in rat synaptosome was measured by the concentrations of [^3H]5-HT.

[1] = read-out: Ki, binding affinity for 5-HT1A receptor, 0.3 nM [3H]8-OH-DPAT, human HEK-293 cell homogenates, 22° C., 60 minutes

Chain of 5-HT1A receptor (P08908 whole entry): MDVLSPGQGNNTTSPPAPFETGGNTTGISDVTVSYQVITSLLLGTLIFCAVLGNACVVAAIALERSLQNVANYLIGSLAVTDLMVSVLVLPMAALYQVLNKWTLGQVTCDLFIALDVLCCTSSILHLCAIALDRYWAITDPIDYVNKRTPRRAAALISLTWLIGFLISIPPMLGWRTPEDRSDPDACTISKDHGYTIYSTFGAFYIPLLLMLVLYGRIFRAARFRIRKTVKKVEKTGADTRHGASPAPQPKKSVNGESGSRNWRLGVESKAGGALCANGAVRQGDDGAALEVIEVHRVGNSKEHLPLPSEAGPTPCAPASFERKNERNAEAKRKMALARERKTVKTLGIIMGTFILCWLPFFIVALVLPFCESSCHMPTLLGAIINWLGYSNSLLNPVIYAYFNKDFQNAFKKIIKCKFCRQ

COc1cc(OC)nc(N2CCN(CCCCc3c[nH]c4ccccc34)CC2)n1 [Example 1, 3-(4-(4-(4,6-Dimethoxypyrimidin-2-yl)piperazin-1-yl)butyl)-1H-indole]
Ki (5-HT1A receptor; [1]): 3.3 nM

COc1ccc2[nH]cc(CCCCN3CCN(c4nc(OC)cc(OC)n4)CC3)c2c1 [Example 2, 3-(4-(4-(4,6-Dimethoxypyrimidin-2-yl)piperazin-1-yl)butyl)-5-methoxy-1H-indole]
Ki (5-HT1A receptor; [1]): 1.4 nM

COc1cc(OC)nc(N2CCN(CCCCc3c[nH]c4ccc(Cl)cc34)CC2)n1 [Example 3, 5-Chloro-3-(4-(4-(4,6-dimethoxypyrimidin-2-yl)piperazin-1-yl)butyl)-1H-indole]
Ki (5-HT1A receptor; [1]): 1.1 nM

COc1cc(OC)nc(N2CCN(CCCCc3c[nH]c4ccc(F)cc34)CC2)n1 [Example 4, 3-(4-(4-(4,6-Dimethoxypyrimidin-2-yl)piperazin-1-yl)butyl)-5-fluoro-1H-indole]
Ki (dopamine D2S receptor): 110 nM | IC50 (serotonin transporter): 6.4 nM | Ki (5-HT1A receptor; [1]): 2.8 nM

COc1cc(OC)nc(N2CCN(CCCCc3c[nH]c4ccc(C#N)cc34)CC2)n1 [Example 5, 3-(4-(4-(4,6-Dimethoxypyrimidin-2-yl)piperazin-1-yl)butyl)-1H-indole-5-carbonitrile]
IC50 (serotonin transporter): 11 nM | Ki (5-HT1A receptor; [1]): 2.3 nM

COc1cc(OC)nc(N2CCN(CCCc3c[nH]c4ccccc34)CC2)n1 [Example 6, 3-(3-(4-(4,6-Dimethoxypyrimidin-2-yl)piperazin-1-yl)propyl)-1H-indole]
IC50 (serotonin transporter): 24 nM | Ki (5-HT1A receptor; [1]): 4.8 nM

COc1ccc2[nH]cc(CCCN3CCN(c4nc(OC)cc(OC)n4)CC3)c2c1 [Example 7, 3-(3-(4-(4,6-Dimethoxypyrimidin-2-yl)piperazin-1-yl)propyl)-5-methoxy-1H-indole]
Ki (5-HT1A receptor; [1]): 0.19 nM

COc1cc(OC)nc(N2CCN(CCCc3c[nH]c4ccc(Cl)cc34)CC2)n1 [Example 8, 5-Chloro-3-(3-(4-(4,6-dimethoxypyrimidin-2-yl)piperazin-1-yl)propyl)-1H-indole]
IC50 (serotonin transporter): 81 nM | Ki (5-HT1A receptor; [1]): 2 nM

COc1cc(OC)nc(N2CCN(CCCc3c[nH]c4ccc(F)cc34)CC2)n1 [Example 9, 3-(3-(4-(4,6-Dimethoxypyrimidin-2-yl)piperazin-1-yl)propyl)-5-fluoro-1H-indole]
IC50 (serotonin transporter): 4.4 nM | Ki (5-HT1A receptor; [1]): 3.4 nM

COc1cc(OC)nc(N2CCN(CCCc3c[nH]c4ccc(C#N)cc34)CC2)n1 [Example 10, 3-(3-(4-(4,6-Dimethoxypyrimidin-2-yl)piperazin-1-yl)propyl)-1H-indole-5-carbonitrile]
Ki (dopamine D2S receptor): 200 nM | IC50 (serotonin transporter): 3.6 nM | Ki (5-HT1A receptor; [1]): 1.3 nM

Cc1cc(C)nc(N2CCN(CCCCc3c[nH]c4ccccc34)CC2)n1 [Example 11, 3-(4-(4-(4,6-Dimethylpyrimidin-2-yl)piperazin-1-yl)butyl)-1H-indole]
IC50 (serotonin transporter): 82 nM | Ki (5-HT1A receptor; [1]): 1.1 nM

COc1ccc2[nH]cc(CCCCN3CCN(c4nc(C)cc(C)n4)CC3)c2c1 [Example 12, 3-(4-(4-(4,6-Dimethylpyrimidin-2-yl)piperazin-1-yl)butyl)-5-methoxy-1H-indole]
Ki (5-HT1A receptor; [1]): 1.1 nM

Cc1cc(C)nc(N2CCN(CCCCc3c[nH]c4ccc(Cl)cc34)CC2)n1 [Example 13, 5-Chloro-3-(4-(4-(4,6-dimethylpyrimidin-2-yl)piperazin-1-yl)butyl)-1H-indole]
Ki (5-HT1A receptor; [1]): 1.8 nM

Cc1cc(C)nc(N2CCN(CCCCc3c[nH]c4ccc(F)cc34)CC2)n1 [Example 14, 3-(4-(4-(4,6-Dimethylpyrimidin-2-yl)piperazin-1-yl)butyl)-5-fluoro-1H-indole]
IC50 (serotonin transporter): 12 nM | Ki (5-HT1A receptor; [1]): 1.7 nM

Cc1cc(C)nc(N2CCN(CCCCc3c[nH]c4ccc(C#N)cc34)CC2)n1 [Example 15, 3-(4-(4-(4,6-Dimethylpyrimidin-2-yl)piperazin-1-yl)butyl)-1H-indole-5-carbonitrile]
IC50 (serotonin transporter): 6.9 nM | Ki (5-HT1A receptor; [1]): 2.9 nM

Cc1cc(C)nc(N2CCN(CCCc3c[nH]c4ccccc34)CC2)n1 [Example 16, 3-(3-(4-(4,6-Dimethylpyrimidin-2-yl)piperazin-1-yl)propyl)-1H-indole]
Ki (dopamine D2S receptor): 110 nM | IC50 (serotonin transporter): 53 nM | Ki (5-HT1A receptor; [1]): 4.1 nM

COc1ccc2[nH]cc(CCCN3CCN(c4nc(C)cc(C)n4)CC3)c2c1 [Example 17, 3-(3-(4-(4,6-Dimethylpyrimidin-2-yl)piperazin-1-yl)propyl)-5-methoxy-1H-indole]
Ki (5-HT1A receptor; [1]): 0.29 nM

Cc1cc(C)nc(N2CCN(CCCc3c[nH]c4ccc(Cl)cc34)CC2)n1 [Example 18, 5-Chloro-3-(3-(4-(4,6-dimethylpyrimidin-2-yl)piperazin-1-yl)propyl)-1H-indole]
IC50 (serotonin transporter): 31 nM | Ki (5-HT1A receptor; [1]): 0.71 nM

Cc1cc(C)nc(N2CCN(CCCc3c[nH]c4ccc(F)cc34)CC2)n1 [Example 19, 3-(3-(4-(4,6-Dimethylpyrimidin-2-yl)piperazin-1-yl)propyl)-5-fluoro-1H-indole]
IC50 (serotonin transporter): 7.9 nM | Ki (5-HT1A receptor; [1]): 1.4 nM

Cc1cc(C)nc(N2CCN(CCCc3c[nH]c4ccc(C#N)cc34)CC2)n1 [Example 20, 3-(3-(4-(4,6-Dimethylpyrimidin-2-yl)piperazin-1-yl)propyl)-1H-indole-5-carbonitrile]
IC50 (serotonin transporter): 2 nM | Ki (5-HT1A receptor; [1]): 1.1 nM

COc1cc(C)nc(N2CCN(CCCCc3c[nH]c4ccc(C#N)cc34)CC2)n1 [Example 21, 3-(4-(4-(4-Methoxy-6-methylpyrimidin-2-yl)piperazin-1-yl)butyl)-1H-indole-5-carbonitrile]
IC50 (serotonin transporter): 2.6 nM | Ki (5-HT1A receptor; [1]): 0.65 nM

COc1cc(C)nc(N2CCN(CCCc3c[nH]c4ccc(C#N)cc34)CC2)n1 [Example 22, 3-(3-(4-(4-Methoxy-6-methylpyrimidin-2-yl)piperazin-1-yl)propyl)-1H-indole-5-carbonitrile]
IC50 (serotonin transporter): 2.7 nM | Ki (5-HT1A receptor): 1.5 nM

N#Cc1ccnc(N2CCN(CCCCc3c[nH]c4ccc(F)cc34)CC2)n1 [Example 23, 2-(4-(4-(5-Fluoro-1H-indol-3-yl)butyl)piperazin-1-yl)pyrimidine-4-carbonitrile]
IC50 (serotonin transporter): 6.1 nM | Ki (5-HT1A receptor; [1]): 18 nM

N#Cc1ccc2[nH]cc(CCCCN3CCN(c4nccc(C#N)n4)CC3)c2c1 [Example 24, 3-(4-(4-(4-Cyanopyrimidin-2-yl)piperazin-1-yl)butyl)-1H-indole-5-carbonitrile]
IC50 (serotonin transporter): 1.9 nM | Ki (5-HT1A receptor; [1]): 6.2 nM

N#Cc1ccnc(N2CCN(CCCc3c[nH]c4ccc(F)cc34)CC2)n1 [Example 25, 2-(4-(3-(5-Fluoro-1H-indol-3-yl)propyl)piperazin-1-yl)pyrimidine-4-carbonitrile]
IC50 (serotonin transporter): 4.5 nM | Ki (5-HT1A receptor; [1]): 4 nM

Fc1ccc2[nH]cc(CCCCN3CCN(c4nccc(C(F)(F)F)n4)CC3)c2c1 [Example 31, 5-Fluoro-3-(4-(4-(4-(trifluoromethyl)pyrimidin-2-yl)piperazin-1-yl)butyl)-1H-indole]
IC50 (serotonin transporter): 16 nM | Ki (5-HT1A receptor; [1]): 2 nM

N#Cc1ccc2[nH]cc(CCCCN3CCN(c4nccc(C(F)(F)F)n4)CC3)c2c1 [Example 32, 3-(4-(4-(4-(Trifluoromethyl)pyrimidin-2-yl)piperazin-1-yl)butyl)-1H-indole-5-carbonitrile]
IC50 (serotonin transporter): 10 nM | Ki (5-HT1A receptor; [1]): 0.7 nM

Fc1ccc2[nH]cc(CCCN3CCN(c4nccc(C(F)(F)F)n4)CC3)c2c1 [Example 33, 5-Fluoro-3-(3-(4-(4-(trifluoromethyl)pyrimidin-2-yl)piperazin-1-yl)propyl)-1H-indole]
IC50 (serotonin transporter): 11 nM | Ki (5-HT1A receptor; [1]): 1 nM

N#Cc1ccc2[nH]cc(CCCN3CCN(c4nccc(C(F)(F)F)n4)CC3)c2c1 [Example 34, 3-(3-(4-(4-(Trifluoromethyl)pyrimidin-2-yl)piperazin-1-yl)propyl)-1H-indole-5-carbonitrile]
IC50 (serotonin transporter): 5.9 nM | Ki (5-HT1A receptor): 0.2 nM

N#Cc1ccc2[nH]cc(CCCCN3CCN(c4ncc(F)cn4)CC3)c2c1 [Example 35, 3-(4-(4-(5-Fluoropyrimidin-2-yl)piperazin-1-yl)butyl)-1H-indole-5-carbonitrile]
IC50 (serotonin transporter): 4.7 nM

N#Cc1ccc2[nH]cc(CCCN3CCN(c4ncc(F)cn4)CC3)c2c1 [Example 36, 3-(3-(4-(5-Fluoropyrimidin-2-yl)piperazin-1-yl)propyl)-1H-indole-5-carbonitrile]
IC50 (serotonin transporter): 8.2 nM

CCOC(=O)c1sc(N2CCN(CCCCc3c[nH]c4ccc(C#N)cc34)CC2)nc1C [Example 39, Ethyl 2-(4-(4-(5-cyano-1H-indol-3-yl)butyl)piperazin-1-yl)-4-methylthiazole-5-carboxylate]
IC50 (serotonin transporter): 2.9 nM | Ki (5-HT1A receptor; [1]): 0.79 nM

Cc1nc(N2CCN(CCCCc3c[nH]c4ccc(C#N)cc34)CC2)sc1C(N)=O [Example 43, 2-(4-(4-(5-Cyano-1H-indol-3-yl)butyl)piperazin-1-yl)-4-methylthiazole-5-carboxamide]
IC50 (serotonin transporter): 0.85 nM | Ki (5-HT1A receptor; [1]): 12 nM

Cc1nc(N2CCN(CCCc3c[nH]c4ccc(C#N)cc34)CC2)sc1C#N [Example 48, 2-(4-(3-(5-Cyano-1H-indol-3-yl)propyl)piperazin-1-yl)-4-methylthiazole-5-carbonitrile]
IC50 (serotonin transporter): 7.7 nM | Ki (5-HT1A receptor; [1]): 2.6 nM

CC1CN(c2nccc(C(N)=O)n2)CCN1CCCc1c[nH]c2ccc(C#N)cc12 (stereo not shown) [Example 49, 2-(4-(3-(5-Cyano-1H-indol-3-yl)propyl)-3-methylpiperazin-1-yl)pyrimidine-4-carboxamide]
IC50 (serotonin transporter): 0.28 nM

CC1CN(c2nccc(C(N)=O)n2)CCN1CCCCc1c[nH]c2ccc(C#N)cc12 (stereo not shown) [Example 50, 2-(4-(4-(5-Cyano-1H-indol-3-yl)butyl)-3-methylpiperazin-1-yl)pyrimidine-4-carboxamide]
IC50 (serotonin transporter): 0.36 nM

From patent publication US9598401B2, “Substituted heteroaryl compounds and methods of use thereof” (Sunshine Lake Pharma Co., Ltd., priority 2013, dated 2017)
